Test results as given in patent publication US20240285765A1, “PHTHALOCYANINE DYE COMPOUNDS, CONJUGATES AND METHODS OF USE THEREOF” (Rakuten Medical, Inc., priority 2021, published 2024).

How the values were obtained:
[1] = Kinetic (aqueous) solubility in pH 7.4 DPBS, UV quantification; details: for Solubility* (kinetic solubility): pH 7.4 DPBS, 4 hours, room temperature (25° C.); for solubility kinetic at 4 h: pH 7.4, aqueous buffer, kinetic from dmso stock
[2] = Singlet oxygen quantum yield, indirect method with chemical quencher (DPBF or ADMA); assay type: physicochemical
Excerpt: Photogeneration quantum yields of singlet oxygen (ΦΔ) were obtained by an indirect method, using either diphenylisobenzofuran (DBPF) or anthracene-9,10-bis-methylmalonate (ADMA) as chemical quenchers in either N,N-dimethylformamide or aqueous media, respectively. Typically, a solution of the phthalocyanine and the quencher was irradiated with a red LED lamp (670 nm) at 5 mW/cm^2. The initial DPBF or ADMA concentrations were kept the same for both the reference and the test samples. The degradation of the DPBF band at 414 nm or ADMA at 401 nm was monitored in a Varian Cary® 50 UV-Vis spectrophotometer, every five seconds in the case of DPBF (up to 30 seconds) and every minute in the case of ADMA (up to five minutes). ZnPc (ΦΔ=0.67) and AlPcSmix (ΦΔ=0.42) were used as references in N,N-dimethylformamide or aqueous media, respectively.
The relative method shown by Eq. (1) was employed for calculations of the ΦΔ:
[formula] • where ΦΔ and ΦΔref are the ^1O2 generation quantum yields for the sample and reference, respectively, m and mref are the DPBF or ADMA photobleaching rates in the presence of the phthalocyanine of the invention and the reference, respectively, and I and Iref are the rates of light absorption by the phthalocyanine derivative and reference, respectively. Concentrations of the test compound and reference were chosen such that their respective absorptions at the irradiation wavelength were the same.

[3] = quencher ADMA, aqueous media, 670 nm LED 5 mW/cm^2, reference AlPcSmix

| SMILES | Solubility* (kinetic solubility) [1] | ΦΔ (singlet oxygen quantum yield) [2, 3] | solubility kinetic at 4 h ([1]; 25 °C) [µg/mL] | further results |
| --- | --- | --- | --- | --- |
| C[Si](C)(CCCNC(=O)COCC(=O)O)O[Si]1(O[Si](C)(C)CCCNC(=O)NCCS(=O)(=O)O)n2c3c4ccccc4c2N=C2N=C(N=c4c5ccccc5c(n41)=NC1=NC(=N3)c3ccccc31)c1ccccc12.N (stereo not drawn) [Example 7, Ammonium 2-(2-((3-(((19-((dimethyl(3-(3-(2-sulfonatoethyl)ureido)propyl)silyl)oxy)-19H-6,11-(azeno)-17,21-(azeno[1]episoindoloazeno)benzo[7,8][1,3,5,10]tetraaza[2]silacycloundecino[4,3-a:11,1-a′]diisoindol-19-yl)oxy)dimethylsilyl)propyl)amino)-2-oxoethoxy)acetate] | A (A: ≤1 μg/mL) |  |  |  |
| C[Si](C)(CCCNC(=O)CCCN(CCCS(=O)(=O)O)CCCS(=O)(=O)O)O[Si]1(O[Si](C)(C)CCCNC(=O)COCC(=O)O)n2c3c4ccccc4c2N=C2N=C(N=c4c5ccccc5c(n41)=NC1=NC(=N3)c3ccccc31)c1ccccc12.N (stereo not drawn) [Example 15, Ammonium 2-(2-((3-(((19-(((3-(4-(bis(3-sulfonatopropyl)ammonio)butanamido)propyl)dimethylsilyl)oxy)-19H-6,11-(azeno)-17,21-(azeno[1]episoindoloazeno)benzo[7,8][1,3,5,10]tetraaza[2]silacycloundecino[4,3-a:11,1-a′]diisoindol-19-yl)oxy)dimethylsilyl)propyl)amino)-2-oxoethoxy)acetate] | B (B: >1 μg/mL to ≤100 μg/mL) |  |  |  |
| C[Si](C)(CCC[N+](CCCCS(=O)(=O)[O-])(CCCCS(=O)(=O)[O-])CCCCS(=O)(=O)[O-])O[Si@@]1(O[Si](C)(C)CCC[N+](CCCCS(=O)(=O)[O-])(CCCCS(=O)(=O)[O-])CCOCCOCCC(=O)[O-])n2c3c4ccccc4c2/N=C2N=C(/N=c4/c5ccccc5/c(n41)=N/C1=NC(=N\3)/c3ccccc31)c1ccccc1\2.[Na+].[Na+].[Na+].[Na+] [Example 18, Sodium 2-((19-((dimethyl(3-(tris(4-sulfonatobutyl)ammonio)propyl)silyl)oxy)-19H-6,11-(azeno)-17,21-(azeno[3]episoindoloazeno)benzo[7,8][1,3,5,10]tetraaza[2]silacycloundecino[4,3-a:11,1-a′]diisoindol-19-yl)oxy)-2-methyl-6,6-bis(4-sulfonatobutyl)-9,12-dioxa-6-aza-2-silapentadecan-6-ium-15-oate] |  | B (B: >0.5) | > 100 |  |
| COCCOCCOCCN(CCCOC(=O)NCCC[Si](C)(C)O[Si-2]123(O[Si](C)(C)CCCNC(=O)COCC(=O)O)n4c5c6ccccc6c4N=C4c6ccccc6C(=[N+]41)N=c1c4ccccc4c(n12)=NC1=[N+]3C(=N5)c2ccccc21)CCOCCOCCOC [Example 3, 2-(2-((3-(((19-((11-(2-(2-(2-methoxyethoxy)ethoxy)ethyl)-21-methyl-16-oxo-2,5,8,15-tetraoxa-11,17-diaza-21-siladocosan-21-yl)oxy)-19H-6,11-(azeno)-17,21-(azeno[3]episoindoloazeno)benzo[7,8][1,3,5,10]tetraaza[2]silacycloundecino[4,3-a:11,1-a′]diisoindol-19-yl)oxy)dimethylsilyl)propyl)amino)-2-oxoethoxy)acetic acid] |  |  |  | solubility kinetic at 4 h ([1]; Dulbecco's phosphate-buffered saline (DPBS), pH 7.4, 25 °C): < 1 µg/mL |
| C[Si](C)(CCC[N+](CCCS(=O)(=O)[O-])(CCCS(=O)(=O)[O-])CCCS(=O)(=O)[O-])O[Si@@]1(O[Si](C)(C)CCC[N+](CCCS(=O)(=O)[O-])(CCCS(=O)(=O)[O-])CCOCCOCCOCCC(=O)[O-])n2c3c4ccccc4c2/N=C2N=C(/N=c4/c5ccccc5/c(n41)=N/C1=NC(=N\3)/c3ccccc31)c1ccccc1\2.[Na+].[Na+].[Na+].[Na+] [Example 19, Sodium 2-((19-((dimethyl(3-(tris(3-sulfonatopropyl)ammonio)propyl)silyl)oxy)-19H-6,11-(azeno)-17,21-(azeno[3]episoindoloazeno)benzo[7,8][1,3,5,10]tetraaza[2]silacycloundecino[4,3-a:11,1-a′]diisoindol-19-yl)oxy)-2-methyl-6,6-bis(3-sulfonatopropyl)-9,12,15-trioxa-6-aza-2-silaoctadecan-6-ium-18-oate] |  | B (B: >0.5) | > 100 |  |
| COCCOCCOCC(=O)NCCC[Si](C)(C)O[Si-2]123(O[Si](C)(C)CCCNC(=O)CCCCC(=O)O)n4c5c6ccccc6c4N=C4c6ccccc6C(=[N+]41)N=c1c4ccccc4c(n12)=NC1=[N+]3C(=N5)c2ccccc21 [Example 1, 6-((3-(dimethyl((19-((15-methyl-10-oxo-2,5,8-trioxa-11-aza-15-silahexadecan-15-yl)oxy)-19H-6,11-(azeno)-17,21-(azeno[3]episoindoloazeno)benzo[7,8][1,3,5,10]tetraaza[2]silacycloundecino[4,3-a:11,1-a′]diisoindol-19-yl)oxy)silyl)propyl)amino)-6-oxohexanoic acid] |  |  |  | ΦΔ (singlet oxygen quantum yield) ([2]; quencher DPBF, N,N-dimethylformamide, 670 nm LED 5 mW/cm^2, reference ZnPc): A (A: ≤0.5) |
| C[Si](C)(CCCNC(=O)COCC(=O)O)O[Si]1(O[Si](C)(C)CCCNC(=O)NCC(S(=O)(=O)O)S(=O)(=O)O)n2c3c4ccccc4c2N=C2N=C(N=c4c5ccccc5c(n41)=NC1=NC(=N3)c3ccccc31)c1ccccc12.N (stereo not drawn) [Example 8, Ammonium 2-(2-((3-(((19-(((3-(3-(2,2-disulfonatoethyl)ureido)propyl)dimethylsilyl)oxy)-19H-6,11-(azeno)-17,21-(azeno[1]episoindoloazeno)benzo[7,8][1,3,5,10]tetraaza[2]silacycloundecino[4,3-a:11,1-a′]diisoindol-19-yl)oxy)dimethylsilyl)propyl)amino)-2-oxoethoxy)acetate] | A (A: ≤1 μg/mL) |  |  |  |
| C[Si](C)(CCC[N+](CCCCS(=O)(=O)O)(CCCCS(=O)(=O)O)CCCCS(=O)(=O)O)O[Si-2]123(O[Si](C)(C)CCC[N+](CCCCS(=O)(=O)O)(CCCCS(=O)(=O)O)CCOCCOCCOCCC(=O)O)n4c5c6ccccc6c4N=C4c6ccccc6C(=[N+]41)N=c1c4ccccc4c(n12)=NC1=[N+]3C(=N5)c2ccccc21.[Na+].[Na+].[Na+].[Na+] [Example 17, Sodium 2-((19-((dimethyl(3-(tris(4-sulfonatobutyl)ammonio)propyl)silyl)oxy)-19H-6,11-(azeno)-17,21-(azeno[3]episoindoloazeno)benzo[7,8][1,3,5,10]tetraaza[2]silacycloundecino[4,3-a:11,1-a′]diisoindol-19-yl)oxy)-2-methyl-6,6-bis(4-sulfonatobutyl)-9,12,15-trioxa-6-aza-2-silaoctadecan-6-ium-18-oate] |  | B (B: >0.5) | > 100 |  |
| C[Si](C)(CCCNC(=O)CCC[N+](CCCS(=O)(=O)[O-])(CCCS(=O)(=O)O)CCCS(=O)(=O)O)O[Si]1(O[Si](C)(C)CCCNC(=O)COCC(=O)O)n2c3c4ccccc4c2N=C2N=C(N=c4c5ccccc5c(n41)=NC1=NC(=N3)c3ccccc31)c1ccccc12.N (stereo not drawn) [Example 5, Ammonium 3-((4-((3-(((19-(((3-(2-(carboxymethoxy)acetamido)propyl)dimethylsilyl)oxy)-19H-6,11-(azeno)-17,21-(azeno[3]episoindoloazeno)benzo[7,8][1,3,5,10]tetraaza[2]silacycloundecino[4,3-a:11,1-a′]diisoindol-19-yl)oxy)dimethylsilyl)propyl)amino)-4-oxobutyl)bis(3-sulfopropyl)ammonio)propane-1-sulfonate] |  | B (B: >0.5) |  |  |
